Tested on: HT-29 cells
Assay: MTT cell viability assay, HT-29
Assay type: cell-based
Details: Homo sapiens, 72 h, MTT assay, 3 d treatment, serial dilutions
Protocol: MTT assay was conducted for HT-29 cells after 3 d treatment with indicated compounds with serial dilutions.
MTT assay was conducted for HT-29 (A) and SK-MEL-28 (B) cells after 3 d treatment with DMSO or indicated compounds with serial dilutions. Clonogenic assay was performed in HT-29 (C) and SK-MEL-28 (D) cells for 14 d treatment with DMSO or indicated compounds with 10, 30 and 100 nM, in duplicate, respectively. Cells were then stained by crystal violet.
Cells (2000 cells per well) were seeded into 96-well microplates. After 20 h, cells were treated with 0.1% DMSO or indicated serial dilutions of compounds in duplicate or triplicate for 3 days. Cell viability was tested using MTT (M6494, Thermo Fisher Scientific) or WST-8 reagent (CK04, Dojindo). Briefly, 12 mM MTT was prepared in PBS or WST-8 reagent was warmed up to room temperature. 20 μL MTT or CCK-8 was then added to each well and the plates were kept in incubator at 37° C. for 3 h in the dark. For the WST-8 assay, signal was obtained after the incubation. For the MTT assay, cell medium was replaced with 200 μL of DMSO after the incubation, and then cell plates were kept at 37° C. for another 30 min. Absorbance signals for MTT and WST-8 were read at 540 nm and 450 nm respectively, with 690 nm as reference performed with Infinite F PLEX plate reader (TECAN, Morrisville, NC, USA). GI50 values were analyzed using GraphPad Prism 8 from the data of at least three independent experiments.
HT-29 or SK-MEL-28 cells (300 cells per well) were seeded in 12-well plates. After 20 h, cells were treated with DMSO or indicated concentrations of compounds in duplicate for two weeks. Medium containing indicated compounds was changed every 3 days. Cells were then fixed and stained with the solution containing 6% (v/v) glutaraldehyde (G5882, Sigma-Aldrich) and 0.5% (w/v) crystal violet for 1 h. To remove the background color, the plates with stained cells were immersed in running water until clear colonies were observed. The plates were dried at RT. The staining images were obtained with Epson Perfection V600 Photo.

Row | GI50 [µM] | Structure (SMILES)
1 | 1.8 ± 0.5 | O=C1CCC(N2C(=O)c3cccc(NCCCCCNCCCONC(=O)c4ccc(F)c(F)c4Nc4ccc(I)cc4F)c3C2=O)C(=O)N1 (centres unmarked) [CPD-027, N-(3-((5-((2-(2,6-dioxopiperidin-3-yl)-1,3-dioxoisoindolin-4-yl)amino)pentyl)amino)propoxy)-3,4-difluoro-2-((2-fluoro-4-iodophenyl)amino)benzamide]
2 | 4 ± 0.2 | Cc1ncsc1-c1ccc(CNC(=O)[C@@H]2C[C@@H](O)CN2C(=O)[C@@H](NC(=O)COCCNCCCONC(=O)c2ccc(F)c(F)c2Nc2ccc(I)cc2F)C(C)(C)C)cc1 [CPD-002, (2S,4R)-1-((S)-14-(tert-Butyl)-1-(3,4-difluoro-2-((2-fluoro-4-iodophenyl)amino)phenyl)-1,12-dioxo-3,10-dioxa-2,7,13-triazapentadecan-15-oyl)-4-hydroxy-N-(4-(4-methylthiazol-5-yl)benzyl)pyrrolidine-2-carboxamide]
3 | 4.5 ± 1.9 | O=C1CCC(N2C(=O)c3cccc(NCCCCCCCNCCCONC(=O)c4ccc(F)c(F)c4Nc4ccc(I)cc4F)c3C2=O)C(=O)N1 (centres unmarked) [CPD-029, N-(3-((7-((2-(2,6-dioxopiperidin-3-yl)-1,3-dioxoisoindolin-4-yl)amino)heptyl)amino)propoxy)-3,4-difluoro-2-((2-fluoro-4-iodophenyl)amino)benzamide]
4 | 3 ± 0.5 | Cc1ncsc1-c1ccc(CNC(=O)[C@@H]2C[C@@H](O)CN2C(=O)[C@@H](NC(=O)CCCCNCCCONC(=O)c2ccc(F)c(F)c2Nc2ccc(I)cc2F)C(C)(C)C)cc1 [CPD-007, (2S,4R)-1-((S)-14-(tert-Butyl)-1-(3,4-difluoro-2-((2-fluoro-4-iodophenyl)amino)phenyl)-1,12-dioxo-3-oxa-2,7,13-triazapentadecan-15-oyl)-4-hydroxy-N-(4-(4-methylthiazol-5-yl)benzyl)pyrrolidine-2-carboxamide]
5 | 3.3 ± 0.6 | Cc1ncsc1-c1ccc(CNC(=O)[C@@H]2C[C@@H](O)CN2C(=O)[C@@H](NC(=O)CCOCCOCCOCCNCCCONC(=O)c2ccc(F)c(F)c2Nc2ccc(I)cc2F)C(C)(C)C)cc1 [CPD-016, (2S,4R)-1-((S)-21-(tert-butyl)-1-(3,4-difluoro-2-((2-fluoro-4-iodophenyl)amino)phenyl)-1,19-dioxo-3,10,13,16-tetraoxa-2,7,20-triazadocosan-22-oyl)-4-hydroxy-N-(4-(4-methylthiazol-5-yl)benzyl)pyrrolidine-2-carboxamide]
6 | 0.24 ± 0.055 | Cc1ncsc1-c1ccc([C@H](C)NC(=O)[C@@H]2C[C@@H](O)CN2C(=O)[C@@H](NC(=O)CCCCCCCCCNCCCONC(=O)c2ccc(F)c(F)c2Nc2ccc(I)cc2F)C(C)(C)C)cc1 [CPD-036, (2S,4R)-1-((S)-19-(tert-butyl)-1-(3,4-difluoro-2-((2-fluoro-4-iodophenyl)amino)phenyl)-1,17-dioxo-3-oxa-2,7,18-triazaicosan-20-oyl)-4-hydroxy-N—((S)-1-(4-(4-methylthiazol-5-yl)phenyl)ethyl)pyrrolidine-2-carboxamide]
7 | 1 ± 0.4 | O=C1CCC(N2C(=O)c3ccc(NCCCCNCCCONC(=O)c4ccc(F)c(F)c4Nc4ccc(I)cc4F)cc3C2=O)C(=O)N1 (centres unmarked) [CPD-042, N-(3-((4-((2-(2,6-dioxopiperidin-3-yl)-1,3-dioxoisoindolin-5-yl)amino)butyl)amino)propoxy)-3,4-difluoro-2-((2-fluoro-4-iodophenyl)amino)benzamide]
8 | 1.1 ± 0.3 | O=C1CCC(N2C(=O)c3ccc(NCCOCCOCCNCCCONC(=O)c4ccc(F)c(F)c4Nc4ccc(I)cc4F)cc3C2=O)C(=O)N1 (centres unmarked) [CPD-048, N-(3-((2-(2-(2-((2-(2,6-dioxopiperidin-3-yl)-1,3-dioxoisoindolin-5-yl)amino)ethoxy)ethoxy)ethyl)amino)propoxy)-3,4-difluoro-2-((2-fluoro-4-iodophenyl)amino)benzamide]

Source: patent publication US12103924B2, “Mitogen-activated protein kinase kinase (MEK) degradation compounds and methods of use” (Icahn School of Medicine at Mount Sinai, priority 2020, dated 2024)
